Consider 4 compounds from ChEMBL document CHEMBL2424647, “Molecular docking studies of the interaction between propargylic enol ethers and human DNA topoisomerase IIα” (2013).

Holding throughout (format): functional
One test concerns HBL-100. Description: Growth inhibition of human HBL100 after 48 hrs. The settings on record: HBL-100, 48 h.
In another test the test system is SW1573. Description: Growth inhibition of human SW1573 after 48 hrs. The settings on record: SW1573, 48 h.
The next test deals with WiDr. Description: Growth inhibition of human WiDr after 48 hrs.
Another test concerns HeLa. Description: Growth inhibition of human HeLa after 48 hrs.

Broadly, the GI50 is the concentration that inhibits growth by half. On to `CCCCC[C@@H](C#CC(=O)OC)O/C=C/C(=O)OC`, for which the GI50 with HBL-100 was found to be 2.3 µM; with SW1573, 8.4 µM; in the test with WiDr, 24 µM; with HeLa, 2.9 µM.
On to `CCCCC[C@H](C#CC(=O)OC)O/C=C/C(=O)OC`, for which the 50% growth inhibitory concentration (GI50) stood at 3.3 µM in the test with HBL-100, 5.5 µM in the test on SW1573, 26 µM with WiDr and 2.6 µM with HeLa.
The matching figures for `CCCCCC(C#CC(=O)OC)O/C=C/C(=O)OC` (racemic): 2.7 µM, 1.3 µM, 13 µM and 17 µM.
The matching figures for `CCCCC(C#CC(=O)OC)O/C=C/C(=O)OC` (racemic): 0.47 µM, 0.42 µM, 3.6 µM and 3.4 µM.
